The source of these data is patent publication US20260258032A1, “TYROSINE KINASE 2 INHIBITORS AND USES THEREOF” (BIOGEN MA INC., priority 2022, published 2026).

Experiment [1] concerns the target T1, JH2 domain of human Tyk2 (Homo sapiens, UniProt P29597).
T1 construct: 10×His-tagged TYK2 JH2 domain (amino acid 575-876)
The experiment can be described thus: JH2 biochemical assay (TR-FRET probe displacement). The experiment is classed as binding. In outline:
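10×His-tagged human TYK2 JH2 (aa 575-876, 2 nM) incubated 60 min with 2 nM fluorescent probe, 0.1 nM Tb anti-His antibody and compound (10-point 3-fold series from […] top). TR-FRET 520/495 nm ratio, falling with probe displacement, normalized and fitted to a 4-parameter logistic for IC50.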

Experiment [2] deals with Tyk2 kinase activity on STAT4. The experiment can be described thus: pSTAT4 cell assay (MSD, NK92 cells). The format is cell-based. Conditions: compounds 1 hr. In outline:
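NK92, serum-starved; cpd 1 hr, 10-pt 4-fold from 10 μM; IL2 30 ng/mL 15 min; lyse; MSD with anti-STAT4 Abs; IC50 by 4-PL fit.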

Where [3] appears, read: TR-FRET probe displacement, JH2 domain of human Tyk2.

Structures can show the parent of a compound that is named as a salt.

T1 sequence (P29597 575-876): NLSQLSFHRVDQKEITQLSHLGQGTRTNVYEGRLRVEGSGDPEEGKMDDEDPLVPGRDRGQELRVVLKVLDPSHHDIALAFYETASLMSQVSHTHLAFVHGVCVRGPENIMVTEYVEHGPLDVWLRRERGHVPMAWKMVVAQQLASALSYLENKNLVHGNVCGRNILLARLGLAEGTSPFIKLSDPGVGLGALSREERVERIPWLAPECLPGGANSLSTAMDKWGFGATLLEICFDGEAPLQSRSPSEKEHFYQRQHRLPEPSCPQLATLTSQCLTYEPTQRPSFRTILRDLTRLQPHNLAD

Regarding `CC(=O)Nc1cc2c(cn1)C1(CC1)CN2c1cc(C)cc(OCC2CCO2)n1` (stereo not shown) [Example 358, N-(1′-(4-methyl-6-(oxetan-2-ylmethoxy)pyridin-2-yl)-1′,2′-dihydrospiro[cyclopropane-1,3′-pyrrolo[3,2-c]pyridin]-6′-yl)acetamide trifluoroacetate], the IC50 in experiment [1] (JH2 biochemical assay) and in experiment [2] (stimulated 15 minutes) was at least 1000 nM in each case.
Consider `CC(=O)Nc1cc2c(cn1)C1(CC1)CN2c1cc(OC2CCN(C)C2)nc(C(C)(F)F)n1` (stereo not shown) [Example 359, N-(1′-(2-(1,1-difluoroethyl)-6-((1-methylpyrrolidin-3-yl)oxy)pyrimidin-4-yl)-1′,2′-dihydrospiro[cyclopropane-1,3′-pyrrolo[3,2-c]pyridin]-6′-yl)acetamide trifluoroacetate], for which the IC50 in experiment [1] (JH2 biochemical assay) was 10 to 100 nM; in experiment [2] (stimulated 15 minutes), at least 1000 nM.
`CC(=O)Nc1cc2c(cn1)C1(CC1)CN2c1cc(C)nc(OC2CC(F)(F)C2)n1` [Example 363, N-(1′-(2-(3,3-difluorocyclobutoxy)-6-methylpyrimidin-4-yl)-1′,2′-dihydrospiro[cyclopropane-1,3′-pyrrolo[3,2-c]pyridin]-6′-yl)acetamide]: the results for the IC50 in experiment [1] (JH2 biochemical assay) and in experiment [2] (stimulated 15 minutes) were 100 to 1000 nM and at least 1000 nM, respectively.
The like results for `CC(=O)Nc1cc2c(cn1)C1(CC1)CN2c1cc(C)nc(OC2CC3(COC3)C2)n1` [Example 364, N-(1′-(2-((2-oxaspiro[3.3]heptan-6-yl)oxy)-6-methylpyrimidin-4-yl)-1′,2′-dihydrospiro[cyclopropane-1,3′-pyrrolo[3,2-c]pyridin]-6′-yl)acetamide] were, in that order, 100 to 1000 nM and at least 1000 nM.
The like results for `CC(=O)Nc1cc2c(cn1)C1(CC1)CN2c1cc(C)nc(OC2CC(C)C2)n1` (stereo not shown) [Example 367, N-(1′-(6-methyl-2-(3-methylcyclobutoxy)pyrimidin-4-yl)-1′,2′-dihydrospiro[cyclopropane-1,3′-pyrrolo[3,2-c]pyridin]-6′-yl)acetamide] were, in that order, 100 to 1000 nM and at least 1000 nM.
The like results for `CC(=O)Nc1cc2c(cn1)C1(CC1)CN2c1cc(C)nc(OC2CC(F)(C#N)C2)n1` (stereo not shown) [Example 368, N-(1′-(2-(3-cyano-3-fluorocyclobutoxy)-6-methylpyrimidin-4-yl)-1′,2′-dihydrospiro[cyclopropane-1,3′-pyrrolo[3,2-c]pyridin]-6′-yl)acetamide] were, in that order, 100 to 1000 nM and at least 1000 nM.
Regarding `CC(=O)Nc1cc2c(cn1)C1(CC1)CN2c1cc(C)nc(OCC2CC2)n1` [Example 369, N-(1′-(2-(cyclopropylmethoxy)-6-methylpyrimidin-4-yl)-1′,2′-dihydrospiro[cyclopropane-1,3′-pyrrolo[3,2-c]pyridin]-6′-yl)acetamide], the IC50 in experiment [1] (JH2 biochemical assay) was 100 to 1000 nM; in experiment [2] (stimulated 15 minutes), at least 1000 nM.
Consider `CC(=O)Nc1cc2c(cn1)C1(CC1)CN2c1cc(C)nc(OC2CC(F)C2)n1` (stereo not shown) [Example 370, N-(1′-(2-(3-fluorocyclobutoxy)-6-methylpyrimidin-4-yl)-1′,2′-dihydrospiro[cyclopropane-1,3′-pyrrolo[3,2-c]pyridin]-6′-yl)acetamide], for which the figures for the IC50 in experiment [1] (JH2 biochemical assay) and in experiment [2] (stimulated 15 minutes) were 100 to 1000 nM and at least 1000 nM, respectively.
Regarding `CC(=O)Nc1cc2c(cn1)C1(CC1)CN2c1cc(C)nc(OCC23CC(C)(CO2)C3)n1` [Example 371, N-(1′-(6-methyl-2-((4-methyl-2-oxabicyclo[2.1.1]hexan-1-yl)methoxy)pyrimidin-4-yl)-1′,2′-dihydrospiro[cyclopropane-1,3′-pyrrolo[3,2-c]pyridin]-6′-yl)acetamide], the IC50 in experiment [1] (JH2 biochemical assay) and in experiment [2] (stimulated 15 minutes) was at least 1000 nM in each case.
For `COC1CC(COc2nc(C)cc(N3CC4(CC4)c4cnc(NC(C)=O)cc43)n2)C1` (stereo not shown) [Example 372, N-(1′-(2-((3-methoxycyclobutyl)methoxy)-6-methylpyrimidin-4-yl)-1′,2′-dihydrospiro[cyclopropane-1,3′-pyrrolo[3,2-c]pyridin]-6′-yl)acetamide], the results for the half-maximal inhibitory concentration (IC50) in experiment [1] (setting [3]) and in experiment [2] (then stimulated 15 minutes) were 100 to 1000 nM and at least 1000 nM, respectively.
On to `COC(C)(C)COc1nc(C)cc(N2CC3(CC3)c3cnc(NC(C)=O)cc32)n1` [Example 373, N-(1′-(2-(2-methoxy-2-methylpropoxy)-6-methylpyrimidin-4-yl)-1′,2′-dihydrospiro[cyclopropane-1,3′-pyrrolo[3,2-c]pyridin]-6′-yl)acetamide], for which the half-maximal inhibitory concentration (IC50) in experiment [1] (setting [3]) was 100 to 1000 nM; in experiment [2] (then stimulated 15 minutes) it was at least 1000 nM.
The like results for `CC(=O)Nc1cc2c(cn1)C1(CC1)CN2c1cc(C)nc(OC2CCOC2)n1` (stereo not shown) [Example 374, N-(1′-(6-methyl-2-((tetrahydrofuran-3-yl)oxy)pyrimidin-4-yl)-1′,2′-dihydrospiro[cyclopropane-1,3′-pyrrolo[3,2-c]pyridin]-6′-yl)acetamide trifluoroacetate] were, in that order, 10 to 100 nM and at least 1000 nM.
With `CC(=O)Nc1cc2c(cn1)C1(CC1)CN2c1cc(C)nc(OC2CC(C#N)C2)n1` (stereo not shown) [Example 375, N-(1′-(2-(3-cyanocyclobutoxy)-6-methylpyrimidin-4-yl)-1′,2′-dihydrospiro[cyclopropane-1,3′-pyrrolo[3,2-c]pyridin]-6′-yl)acetamide], the half-inhibitory concentration (IC50) in experiment [1] (setting [3]) was 100 to 1000 nM; in experiment [2] (then stimulated 15 minutes), at least 1000 nM.
Take `COCC1CC(Oc2nc(C)cc(N3CC4(CC4)c4cnc(NC(C)=O)cc43)n2)C1` (stereo not shown) [Example 376, N-(1′-(2-(3-(methoxymethyl)cyclobutoxy)-6-methylpyrimidin-4-yl)-1′,2′-dihydrospiro[cyclopropane-1,3′-pyrrolo[3,2-c]pyridin]-6′-yl)acetamide]: the half-maximal inhibitory concentration (IC50) in experiment [1] (setting [3]) was 100 to 1000 nM; in experiment [2] (then stimulated 15 minutes) it was at least 1000 nM.
The like results for `CC(=O)Nc1cc2c(cn1)C1(CC1)CN2c1cc(C)nc(OC2CC(F)C2)n1` (stereo not shown) [Example 377, N-(1′-(2-(3-fluorocyclobutoxy)-6-methylpyrimidin-4-yl)-1′,2′-dihydrospiro[cyclopropane-1,3′-pyrrolo[3,2-c]pyridin]-6′-yl)acetamide] were, in that order, 10 to 100 nM and at least 1000 nM.
In the case of `COC1(COc2nc(C)cc(N3CC4(CC4)c4cnc(NC(C)=O)cc43)n2)CCC1` [Example 378, N-(1′-(2-((1-methoxycyclobutyl)methoxy)-6-methylpyrimidin-4-yl)-1′,2′-dihydrospiro[cyclopropane-1,3′-pyrrolo[3,2-c]pyridin]-6′-yl)acetamide], the results for the 50% inhibitory concentration (IC50) in experiment [1] (setting [3]) and in experiment [2] (then stimulated 15 minutes) were 100 to 1000 nM and at least 1000 nM, respectively.
As to `CC(=O)Nc1cc2c(cn1)C1(CC1)CN2c1cc(C)nc(OC2CCCC2)n1` [Example 379, N-(1′-(2-(cyclopentyloxy)-6-methylpyrimidin-4-yl)-1′,2′-dihydrospiro[cyclopropane-1,3′-pyrrolo[3,2-c]pyridin]-6′-yl)acetamide trifluoroacetate], the values for the IC50 in experiment [1] (setting [3]) and in experiment [2] (then stimulated 15 minutes) were 10 to 100 nM and at least 1000 nM, respectively.
For the molecule `CC(=O)Nc1cc2c(cn1)C1(CC1)CN2c1cc(-c2ccncc2F)nc(C(C)(F)F)n1` [Example 381, N-(1′-(2-(1,1-difluoroethyl)-6-(3-fluoropyridin-4-yl)pyrimidin-4-yl)-1′,2′-dihydrospiro[cyclopropane-1,3′-pyrrolo[3,2-c]pyridin]-6′-yl)acetamide trifluoroacetate], the concentration for half-maximal inhibition (IC50) in experiment [1] (setting [3]) and in experiment [2] (then stimulated 15 minutes) was at most 10 nM in each case.
Take `CC(=O)Nc1cc2c(cn1)C1(CC1)CN2c1cc(-c2cnn(C3CCC3)c2)nc(C(C)(F)F)n1` [Example 382, N-(1′-(6-(1-cyclobutyl-1H-pyrazol-4-yl)-2-(1,1-difluoroethyl)pyrimidin-4-yl)-1′,2′-dihydrospiro[cyclopropane-1,3′-pyrrolo[3,2-c]pyridin]-6′-yl)acetamide trifluoroacetate]: the half-maximal inhibitory concentration (IC50) in experiment [1] (setting [3]) and in experiment [2] (then stimulated 15 minutes) was at most 10 nM throughout.
Consider `CC(=O)Nc1cc2c(cn1)C1(CC1)CN2c1cc(-c2cnn(C(F)F)c2)nc(C(C)(F)F)n1` [Example 383, N-(1′-(2-(1,1-difluoroethyl)-6-(1-(difluoromethyl)-1H-pyrazol-4-yl)pyrimidin-4-yl)-1′,2′-dihydrospiro[cyclopropane-1,3′-pyrrolo[3,2-c]pyridin]-6′-yl)acetamide trifluoroacetate], for which the IC50 was at most 10 nM in experiment [1] (setting [3]) and 10 to 100 nM in experiment [2] (then stimulated 15 minutes).
`CC(=O)Nc1cc2c(cn1)C1(CC1)CN2c1cc(-c2cnn(C)c2C(F)F)nc(C(C)(F)F)n1` [Example 385, N-(1′-(2-(1,1-difluoroethyl)-6-(5-(difluoromethyl)-1-methyl-1H-pyrazol-4-yl)pyrimidin-4-yl)-1′,2′-dihydrospiro[cyclopropane-1,3′-pyrrolo[3,2-c]pyridin]-6′-yl)acetamide trifluoroacetate]: the IC50 in experiment [1] (setting [3]) is at most 10 nM; in experiment [2] (then stimulated 15 minutes), 10 to 100 nM.
Consider `CC(=O)Nc1cc2c(cn1)C1(CC1)CN2c1cc(-c2cnn(C3CC3)c2)nc(C(C)(F)F)n1` [Example 387, N-(1′-(6-(1-cyclopropyl-1H-pyrazol-4-yl)-2-(1,1-difluoroethyl)pyrimidin-4-yl)-1′,2′-dihydrospiro[cyclopropane-1,3′-pyrrolo[3,2-c]pyridin]-6′-yl)acetamide trifluoroacetate], for which the IC50 in experiment [1] (setting [3]) and in experiment [2] (then stimulated 15 minutes) was at most 10 nM each time.
Turning to `CC(=O)Nc1cc2c(cn1)C1(CC1)CN2c1cc(-c2cnn(C3COC3)c2)nc(C(C)(F)F)n1` [Example 388, N-(1′-(2-(1,1-difluoroethyl)-6-(1-(oxetan-3-yl)-1H-pyrazol-4-yl)pyrimidin-4-yl)-1′,2′-dihydrospiro[cyclopropane-1,3′-pyrrolo[3,2-c]pyridin]-6′-yl)acetamide], the half-inhibitory concentration (IC50) in experiment [1] (setting [3]) and in experiment [2] (then stimulated 15 minutes) was at most 10 nM throughout.
